# Data: patent publication US20240279281A1, “Peptide Inhibitors of Interleukin-23 Receptor” (Janssen Pharmaceutica NV, priority 2023, published 2024)
# Starred links: 1 amine or outer side, 2 acyl side, 3 side chain; linkers in the order of their positions; H or OH if unused. Positions of bridges follow the written chain, without caps; N, C: chain ends. Non-standard residues stand in square brackets, D forms with d. Residues, ends and D or L forms follow the SMILES beside them. Groups on a side chain read outwards from the residue. *: point of attachment. Trp(7-(3-AcNH-Ph)) = CC(=O)Nc1cccc(-c2cccc3c(C[C@H](N)C(=O)O)c[nH]c23)c1; Me3N+(CH2)2O(CH2)2O(CH2)2CO = C[N+](C)(C)CCOCCOCCC(=O)*; 2Nal(6-OH) = N[C@@H](Cc1ccc2cc(O)ccc2c1)C(=O)O; Trp(7-Me) = Cc1cccc2c(C[C@H](N)C(=O)O)c[nH]c12; Abu(4-yl) = O=C([C@H](CC[*:3])N[*:1])[*:2]; C18 diacid = O=C(O)CCCCCCCCCCCCCCCCC(=O)*; 3Pal(5-Me) = Cc1cncc(C[C@H](N)C(=O)O)c1; Dab(NMeAc) = CC(=O)N(C)CC[C@H](N)C(=O)O; γGlu = O=C(O)[C@H](CCC(=O)[*:2])N[*:1]; AEF = NCCOc1ccc(C[C@H](N)C(=O)O)cc1; 3Pal = N[C@@H](Cc1cccnc1)C(=O)O; Ethyl(2-guanidino) = N=C(N)NCC*; Lys(Me) = CNCCCC[C@H](N)C(=O)O; Pen = CC(C)(S)[C@H](N)C(=O)O; Thp = NC1(C(=O)O)CCOCC1; AEEA = NCCOCCOCC(=O)O; Ava = NCCCCC(=O)O; Sar = CNCC(=O)O
# Columns and labels:
# [1] = target: T1, IL-23-stimulated phosphorylated STAT3 in peripheral blood mononuclear cells (PBMCs) (Homo sapiens, UniProt Q5VWK5); test: PBMC pSTAT3 Assay; type: cell-based; details: PBMCs from healthy donors, IL-23 5 ng/mL, 30 minutes, read-out: PBMC pSTAT3 IC50
# T1 sequence (Q5VWK5 24-629): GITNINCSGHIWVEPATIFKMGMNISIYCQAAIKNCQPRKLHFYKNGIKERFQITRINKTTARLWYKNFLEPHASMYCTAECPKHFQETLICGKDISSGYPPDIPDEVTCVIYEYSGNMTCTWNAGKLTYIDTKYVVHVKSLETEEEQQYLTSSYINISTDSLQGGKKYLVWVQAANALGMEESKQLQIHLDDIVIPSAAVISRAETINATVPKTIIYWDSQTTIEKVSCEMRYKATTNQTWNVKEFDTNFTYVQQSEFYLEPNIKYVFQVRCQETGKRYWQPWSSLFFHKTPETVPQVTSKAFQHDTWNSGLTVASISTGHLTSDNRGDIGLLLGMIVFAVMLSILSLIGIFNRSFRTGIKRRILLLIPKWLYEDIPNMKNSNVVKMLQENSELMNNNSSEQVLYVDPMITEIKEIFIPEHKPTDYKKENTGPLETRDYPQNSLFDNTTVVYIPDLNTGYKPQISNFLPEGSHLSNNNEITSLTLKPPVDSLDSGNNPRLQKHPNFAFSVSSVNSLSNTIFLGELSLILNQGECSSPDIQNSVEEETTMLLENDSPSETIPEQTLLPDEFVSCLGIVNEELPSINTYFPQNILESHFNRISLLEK
# Protocol: Cryopreserved peripheral blood mononuclear cells (PBMCs) from healthy donors were thawed and washed twice in ImmunoCult-XF T cell expansion medium (XF-TCEM) supplemented with CTL anti-aggregate wash. The cells were counted, resuspended at 2-6×10^5 cells per mL XF-TCEM supplemented with penicillin/streptomycin and 100 ng/mL IL-1β (BioLegend, 579404), and cultured in tissue culture flasks coated with anti-CD3 (eBioscience, 16-0037-85 or BD Pharmingen, 555329) at 37° C. in 5% CO2. On day 4 of culture, PBMCs were collected, washed twice in RPMI-1640 supplemented with 0.1% BSA (RPMI-BSA), and incubated in RPMI-BSA in upright tissue culture flasks for ˜4 hours at 37° C. in 5% CO2. Following this ‘starvation,’ a total of 6×10^4 cells in 30 μL RPMI-BSA was transferred into each well of a 384-well plate pre-spotted with peptide or DMSO. The cells were incubated for 30 minutes prior to the addition of IL-23 at a final concentration of 5 ng/mL. The cells were stimulated with cytokine for 30 minutes at 37° C. in 5% CO2, transferred onto ice for 10 minutes, and lysed. Cell lysates were stored at −80° C. until phosphorylated STAT3 was measured using the phospho-STAT panel kit (Meso Scale Discovery, K15202D).
# IL-23R = target: T2, IL-23R (Homo sapiens, UniProt Q5VWK5); test: IL23R Reporter Assay; type: cell-based; details: HEK293 cells containing IL-23R, IL-12Rβ1 and STAT-inducible luciferase reporter; 10 ng/mL IL-23; 5 h; read-out: IC50
# T2 construct: host or cells: HEK293
# T2 sequence (Q5VWK5 24-629): T1 sequence (Q5VWK5 24-629)
# Protocol: Compounds were serially diluted in 100% (v/v) DMSO) and plated using an Echo acoustic dispenser (Labcyte) into 1536-well non-treated black assay plates (Corning #9146). […] After 5 h at 37° C., 5% CO2, 95% relative humidity, cells were placed at 20° C. and treated with BioGlo reagent (Promega) according to the Manufacturer's instructions. Luminescence was measured on a Pherastar FSX (BMG LabTech).
Compound,IC50 [1] [nM],IC50 (IL-23R) [nM]
CC(=O)NCCCC[C@@H]1NC(=O)[C@H](Cc2c[nH]c3c(C)cccc23)NC(=O)[C@H]([C@@H](C)O)NC(=O)[C@H](CC(N)=O)NC(=O)[C@@H]2CCSC[C@H](NC1=O)C(=O)N[C@@H](Cc1ccc(OCCN)cc1)C(=O)N[C@@H](Cc1ccc3cc(O)ccc3c1)C(=O)NC1(CCOCC1)C(=O)N[C@H](C(=O)N[C@@H](CC(N)=O)C(=O)N[C@@H](Cc1cccnc1)C(=O)N(C)CC(N)=O)CCC(=O)NCCCCC(=O)N2 [compound 171] ([Ava][Abu(4-yl)]NT[Trp(7-Me)]K(Ac)C[AEF][2Nal(6-OH)][Thp]EN[3Pal][Sar]-NH2; thioether 2-7; lactam N-11),< 0.01,< 10
"CC(=O)NCCCC[C@@H]1NC(=O)[C@H](Cc2c[nH]c3c(C)cccc23)NC(=O)[C@H]([C@@H](C)O)NC(=O)[C@H](CC(N)=O)NC(=O)[C@@H](NC(C)=O)C(C)(C)SSC(C)(C)[C@@H](C(=O)N[C@@H](Cc2ccc(OCCN)cc2)C(=O)N[C@@H](Cc2ccc3cc(O)ccc3c2)C(=O)NC2(C(=O)N[C@@H](CCCCNC(=O)COCCOCCNC(=O)COCCOCCNC(=O)CC[C@H](NC(=O)CCCCCCCCCCCCCCCCC(=O)O)C(=O)O)C(=O)N[C@@H](CC(N)=O)C(=O)N[C@@H](Cc3cccnc3)C(=O)N(C)CC(N)=O)CCOCC2)NC1=O [SEQ ID NO: 273, MeCO-Pen(3)-N-T-7MeW-K(Ac)-Pen(3)-AEF-6OH2Nal-THP-K(PEG2PEG2gEC18OH)-N-3Pya-Sar-CONH2] (Ac-[Pen]NT[Trp(7-Me)]K(Ac)[Pen][AEF][2Nal(6-OH)][Thp]K([AEEA-AEEA-γGlu-C18 diacid])N[3Pal][Sar]-NH2; disulfide 1-6)",0.01 to 0.1,10 to 100
"CC(=O)NCCCC[C@@H]1NC(=O)[C@H](Cc2c[nH]c3c(C)cccc23)NC(=O)[C@H]([C@@H](C)O)NC(=O)[C@@H]2CCC(=O)NCCOc3ccc(cc3)C[C@@H](C(=O)N[C@@H](Cc3ccc4cc(O)ccc4c3)C(=O)NC3(C(=O)N[C@@H](CCCCNC(C)=O)C(=O)N[C@@H](CC(N)=O)C(=O)N[C@@H](Cc4cccnc4)C(=O)N(C)CC(N)=O)CCOCC3)NC(=O)[C@@H](NC1=O)C(C)(C)SSC(C)(C)[C@H](NC(C)=O)C(=O)N2 [SEQ ID NO: 414, MeCO-Pen(3)-E(2)-T-7MeW-K(Ac)-Pen(3)-AEF(2)-6OH2Nal-THP-K(Ac)-N-3Pya-Sar-CONH2] (Ac-[Pen]ET[Trp(7-Me)]K(Ac)[Pen][AEF][2Nal(6-OH)][Thp]K(Ac)N[3Pal][Sar]-NH2; disulfide 1-6; lactam 2-7)",< 0.01,< 10
"CC(=O)N(C)CCCC[C@@H]1NC(=O)[C@H](Cc2c[nH]c3c(C)cccc23)NC(=O)[C@H]([C@@H](C)O)NC(=O)[C@H](CC(=O)N(C)C)NC(=O)[C@@H](NC(=O)CCOCCOCC[N+](C)(C)C)C(C)(C)SSC(C)(C)[C@@H](C(=O)N[C@@H](Cc2ccc(OCCN)cc2)C(=O)N[C@@H](Cc2ccc3cc(O)ccc3c2)C(=O)NC2(C(=O)N[C@@H](CCN(C)C(C)=O)C(=O)N[C@@H](CC(N)=O)C(=O)N[C@@H](Cc3cccnc3)C(=O)N(C)CC(=O)N(C)C)CCOCC2)NC1=O [compound 371, cPEG3aCO-Pen(3)-N(N(Me)2)-T-7MeW-K(NMeAc)-Pen(3)-AEF-6OH2Nal-THP-Dab(NMeAc)-N-3Pya-Sar-CON(Me)2] ({Me3N+(CH2)2O(CH2)2O(CH2)2CO}-[Pen]D(NMe2)T[Trp(7-Me)][Lys(Me)](Ac)[Pen][AEF][2Nal(6-OH)][Thp][Dab(NMeAc)]N[3Pal][Sar]-NMe2; disulfide 1-6)",< 0.01,< 10

# Further lines, results first:
IC50 [1] [nM],IC50 (IL-23R) [nM],Compound
0.01 to 0.1,< 10,"CC(=O)NCCCC[C@@H]1NC(=O)[C@H](Cc2c[nH]c3c(-c4cccc(NC(C)=O)c4)cccc23)NC(=O)[C@H]([C@@H](C)O)NC(=O)[C@H](CC(N)=O)NC(=O)[C@@H](NC(=O)CCOCCOCC[N+](C)(C)C)C(C)(C)SSC(C)(C)[C@@H](C(=O)N[C@@H](Cc2ccc(OCCNC(=N)N)cc2)C(=O)N[C@@H](Cc2ccc3cc(O)ccc3c2)C(=O)NC2(C(=O)N[C@@H](CCCCN(C)C(C)=O)C(=O)N[C@@H](CC(N)=O)C(=O)N[C@@H](Cc3cccnc3)C(=O)N(C)CC(N)=O)CCOCC2)NC1=O [compound 34, cPEG3aCO-Pen(3)-N-T-7(3NAcPh)W-K(Ac)-Pen(3)-AEF(G)-6OH2Nal-THP-K(NMeAc)-N-3Pya-Sar-CONH2] ({Me3N+(CH2)2O(CH2)2O(CH2)2CO}-[Pen]NT[Trp(7-(3-AcNH-Ph))]K(Ac)[Pen]Y(Ethyl(2-guanidino))[2Nal(6-OH)][Thp][Lys(Me)](Ac)N[3Pal][Sar]-NH2; disulfide 1-6)"
< 0.01,< 10,"CC(=O)N(C)CCCC[C@@H]1NC(=O)[C@H](Cc2c[nH]c3c(C)cccc23)NC(=O)[C@H]([C@@H](C)O)NC(=O)[C@H](CC(N)=O)NC(=O)[C@@H](NC(=O)CCOCCOCC[N+](C)(C)C)C(C)(C)SSC(C)(C)[C@@H](C(=O)N[C@@H](Cc2ccc(OCCN)cc2)C(=O)N[C@@H](Cc2ccc3cc(O)ccc3c2)C(=O)NC2(C(=O)N[C@@H](CCC(=O)N(C)C)C(=O)N[C@@H](CC(N)=O)C(=O)N[C@@H](Cc3cccnc3)C(=O)N(C)CC(N)=O)CCOCC2)NC1=O [compound 392, cPEG3aCO-Pen(3)-N-T-7MeW-K(NMeAc)-Pen(3)-AEF-6OH2Nal-THP-Q(N(Me)2)-N-3Pya-Sar-CONH2] ({Me3N+(CH2)2O(CH2)2O(CH2)2CO}-[Pen]NT[Trp(7-Me)][Lys(Me)](Ac)[Pen][AEF][2Nal(6-OH)][Thp]E(NMe2)N[3Pal][Sar]-NH2; disulfide 1-6)"
< 0.01,< 10,"CC(=O)NCCCC[C@@H]1NC(=O)[C@H](Cc2c[nH]c3c(-c4cccc(NC(C)=O)c4)cccc23)NC(=O)[C@H]([C@@H](C)O)NC(=O)[C@H](CC(N)=O)NC(=O)[C@@H](NC(=O)[C@@H](CCCNC(=N)N)NC(C)=O)C(C)(C)SSC(C)(C)[C@@H](C(=O)N[C@@H](Cc2ccc(OCCNC(=N)N)cc2)C(=O)N[C@@H](Cc2ccc3cc(O)ccc3c2)C(=O)NC2(C(=O)N[C@@H](CCC(=O)O)C(=O)N[C@@H](CC(N)=O)C(=O)N[C@@H](Cc3cncc(C)c3)C(=O)N(C)CC(N)=O)CCOCC2)NC1=O [compound 15, MeCO-r-Pen(3)-N-T-7(3NAcPh)W-K(Ac)-Pen(3)-AEF(G)-6OH2Nal-THP-E-N-5MePyridinAla-Sar-CONH2] (Ac-[dR][Pen]NT[Trp(7-(3-AcNH-Ph))]K(Ac)[Pen]Y(Ethyl(2-guanidino))[2Nal(6-OH)][Thp]EN[3Pal(5-Me)][Sar]-NH2; disulfide 2-7)"
0.01 to 0.1,< 10,"Cc1cccc2c(C[C@@H]3NC(=O)[C@H]([C@@H](C)O)NC(=O)[C@H](CC(N)=O)NC(=O)[C@@H](NC(=O)CCOCCOCC[N+](C)(C)C)C(C)(C)SSC(C)(C)[C@@H](C(=O)N[C@@H](Cc4ccc(OCCN)cc4)C(=O)N[C@@H](Cc4ccc5cc(O)ccc5c4)C(=O)NC4(C(=O)N[C@@H](CCC(=O)O)C(=O)N[C@@H](CC(N)=O)C(=O)N[C@@H](Cc5cccnc5)C(=O)N(C)CC(N)=O)CCOCC4)NC(=O)[C@H](CCCCN(C)C(=O)CCOCCOCC[N+](C)(C)C)NC3=O)c[nH]c12 [compound 319, cPEG3aCO-Pen(3)-N-T-7MeW-K(NMecPEG3a)-Pen(3)-AEF-6OH2Nal-THP-E-N-3Pya-Sar-CONH2] ({Me3N+(CH2)2O(CH2)2O(CH2)2CO}-[Pen]NT[Trp(7-Me)][Lys(Me)](Me3N+(CH2)2O(CH2)2O(CH2)2CO)[Pen][AEF][2Nal(6-OH)][Thp]EN[3Pal][Sar]-NH2; disulfide 1-6)"
